Reference: patent US20180155757A1, “IDENTIFICATION OF BACTERIA THAT ARE RESISTANT TO CARBAPENEMS BY MEMBRANE IMPERVIOUSNESS” (BIOMÉRIEUX, priority 2015, published 2018)
Where two headings read alike, the source gives them in different places.

Legend:
Test in all cases: Etest MIC of indicator carbapenems on MH II agar without/with PMBN
Type in all cases: cell-based
[1] = test system: E. aerogenes 1204050 (membrane impermeability); conditions: in µg/mL
In short: (§1)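 MICs are read directly from Etest strips of imipenem, ertapenem or meropenem after 16–20 h at 35° C. The agar is MH II with PMBN at 0 up to ⅕ of its own MIC, inoculated by swab at 0.5 McFarland.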

[2] = test system: E. cloacae 1204153 (membrane impermeability); conditions: in µg/mL
In short: as §1

[3] = test system: E. coli 1008078 (VIM producer)
In short: as §1

[4] = test system: K. pneumoniae KP 55 (porin−); conditions: Klebsiella pneumoniae
In short: as §1

[5] = test system: E. aerogenes 1204048; conditions: E. aerogenes 1204048 (membrane impermeability), Table 4a, in µg/mL
Procedure: (§2) The determinations of antibiotic MIC were carried out on solid culture media with the Etest® method. To do this, Etest® strips (bioMérieux, France) were used: • Etest® Imipenem IM 32, and • Etest® Ertapenem ETP 32, and also solid culture media, differing from one another by virtue of their non-inhibitory concentrations of PMBN.
(§3) These solid culture media are prepared in Petri dishes (0=145 mm; V=50 ml) on a base of MH II Agar (Becton Dickinson®, United States), more or less supplemented with PMBN. The PMBN concentrations range from 0 up to concentrations equivalent to one fifth of the MIC of PMBN (⅕ MICPMBN).
(§4) Using a swab and the Retro C80™ rota-plater (bioMérieux, France), the culture media were inoculated with the bacteria, originating from an inoculum of 0.5 McFarland, prepared in 0.85% NaCl solution from colonies subcultured the day before on MH II agar.
(§5) The various Etest® strips are then deposited on the surface of the culture media. After 16 to 20 hours of incubation at 35° C., the MICS were read.
(§6) To do this, imipenem and ertapenem were used as indicator carbapenems. Non-inhibitory concentrations of PMBN, equivalent to concentrations of one tenth ( 1/10), one eighth (⅛) and one fifth (⅕) of the MIC of PMBN, were applied.
(§7) In the light of the MICPMBN values previously identified, very predominantly much higher than 300 μg/ml, the following standard concentrations were retained and applied to the bacterial strains to be tested: 50, 100, 150, 200 and 300 μg/ml.
(§8) By way of indicator carbapenems according to the invention, in addition to imipenem (IM) and ertapenem (ETP), meropenem (MP) was also tested. Like the other two antibiotics, meropenem was used in the form of Etest® strips (Etest® Meropenem MP 32 from the company bioMérieux, France).
(§9) The methods used to prepare the new culture media and to carry out the antibiotic-sensitivity tests are identical to those described above.

[6] = test system: E. aerogenes 9203076
Procedure: as §2, §3, §4, §5, §6, §7, §8, §9

[7] = test system: E. aerogenes 9306071; conditions: E. aerogenes 9306071 (membrane impermeability), Table 4a
Procedure: as §2, §3, §4, §5, §6, §7, §8, §9

[8] = test system: E. cloacae 9402034; conditions: E. cloacae 9402034 (membrane impermeability), Table 4a
Procedure: as §2, §3, §4, §5, §6, §7, §8, §9

[9] = test system: E. coli 1204043
Procedure: as §2, §3, §4, §5, §6, §7, §8, §9

[10] = test system: K. pneumoniae 1002015; conditions: Klebsiella pneumoniae, 1002015, K. pneumoniae 1002015 (porin−), Table 4, read-out: MIC
Procedure: as §2, §3, §4, §5, §6, §7, §8, §9

[11] = test system: K. pneumoniae 1204034
Procedure: as §2, §3, §4, §5, §6, §7, §8, §9

In the case of `C[C@@H](O)[C@H]1C(=O)N2C(C(=O)O)=C(S[C@@H]3CN[C@H](C(=O)N(C)C)C3)[C@H](C)[C@H]12` [MP, meropenem], the MIC ([1]; [PMBN] 0, Table 4a) is reported as >32, the MIC ([1]; [PMBN] 100, Table 4a) is reported as 2-4 and the MIC ([1]; [PMBN] 200, Table 4a) is reported as 1.5-2. The MIC ([1]; [PMBN] 300, Table 4a) was 1, the MIC ([2]; [PMBN] 0, Table 4a) was 4 and the MIC ([2]; [PMBN] 100, Table 4a) was 0.75-1. For the same molecule, the MIC ([2]; [PMBN] 200, Table 4a) was 1, the MIC ([2]; [PMBN] 300, Table 4a) was 0.75 and the MIC ([3]; [PMBN] 0, Table 4a) was 0.5 µg/mL. It also gave an MIC ([3]; [PMBN] 100, Table 4a) of 0.5 µg/mL, an MIC ([3]; [PMBN] 200, Table 4a) of 0.25 µg/mL and an MIC ([3]; [PMBN] 300, Table 4a) of 0.25 µg/mL. The MIC ([4]; [PMBN] 0) was 0.19 µg/mL, the MIC ([4]; [PMBN] 50 μg/ml) was 0.125 µg/mL and the MIC ([4]; [PMBN] 100 μg/ml) was 0.064 µg/mL. The MIC ([4]; [PMBN] 150 μg/ml) was 0.064 µg/mL, the MIC ([4]; [PMBN] 200 μg/ml) was 0.047 µg/mL and the MIC ([5]; [PMBN] 0) was >32. The MIC ([5]; [PMBN] 100) was 1.5, the MIC ([5]; [PMBN] 200) was 1 and the MIC ([5]; [PMBN] 300) was 0.5-1. For the same molecule, the MIC ([6]; E. aerogenes 9203076 (membrane impermeability), [PMBN] 0, Table 4a, in µg/mL) was 4, the MIC ([6]; E. aerogenes 9203076 (membrane impermeability), [PMBN] 100, Table 4a, in µg/mL) was 2 and the MIC ([6]; E. aerogenes 9203076 (membrane impermeability), [PMBN] 200, Table 4a, in µg/mL) was 1.5. The MIC ([6]; E. aerogenes 9203076 (membrane impermeability), [PMBN] 300, Table 4a, in µg/mL) was 0.5-0.75, the MIC ([6]; Klebsiella aerogenes, 9203076, E. aerogenes 9203076 (porin−), [PMBN] 0, Table 4, read-out: MIC) was 4 µg/mL and the MIC ([6]; Klebsiella aerogenes, 9203076, E. aerogenes 9203076 (porin−), [PMBN] 150 μg/ml, Table 4, read-out: MIC) was 0.5 µg/mL. For the same molecule, the MIC ([6]; Klebsiella aerogenes, 9203076, E. aerogenes 9203076 (porin−), [PMBN] 200 μg/ml, Table 4, read-out: MIC) was 0.5 µg/mL, the MIC ([7]; [PMBN] 0) was 4 µg/mL and the MIC ([7]; [PMBN] 100) was 1.5 µg/mL. The MIC ([7]; [PMBN] 200) was 1.5 µg/mL, the MIC ([7]; [PMBN] 300) was 0.5 µg/mL and the MIC ([8]; [PMBN] 0) was 16 µg/mL. For the same molecule, the MIC ([8]; [PMBN] 100) was 2 µg/mL, the MIC ([8]; [PMBN] 200) was 2 µg/mL and the MIC ([8]; [PMBN] 300) was 3 µg/mL. The MIC ([9]; E. coli 1204043 (membrane impermeability), [PMBN] 0, Table 4a, in µg/mL) was 4, the MIC ([9]; E. coli 1204043 (membrane impermeability), [PMBN] 100, Table 4a, in µg/mL) was 0.75 and the MIC ([9]; E. coli 1204043 (membrane impermeability), [PMBN] 200, Table 4a, in µg/mL) was 0.38. The MIC ([9]; E. coli 1204043 (membrane impermeability), [PMBN] 300, Table 4a, in µg/mL) was 0.19, the MIC ([9]; Escherichia coli, 1204043, E. coli 1204043 (porin−), [PMBN] 0, Table 4, read-out: MIC) was 3 µg/mL and the MIC ([9]; Escherichia coli, 1204043, E. coli 1204043 (porin−), [PMBN] 150 μg/ml, Table 4, read-out: MIC) was 0.064 µg/mL. For the same molecule, the MIC ([9]; Escherichia coli, 1204043, E. coli 1204043 (porin−), [PMBN] 200 μg/ml, Table 4, read-out: MIC) was 0.008 µg/mL, the MIC ([10]; [PMBN] 0) was 2 µg/mL and the MIC ([10]; [PMBN] 150 μg/ml) was 0.19 µg/mL. The MIC ([10]; [PMBN] 200 μg/ml) was 0.19 µg/mL, the MIC ([11]; K. pneumoniae 1204034 (membrane impermeability), [PMBN] 0, Table 4a) was 16 µg/mL and the MIC ([11]; K. pneumoniae 1204034 (membrane impermeability), [PMBN] 100, Table 4a) was 1.5 µg/mL. It also gave an MIC ([11]; K. pneumoniae 1204034 (membrane impermeability), [PMBN] 200, Table 4a) of 0.75 µg/mL, an MIC ([11]; K. pneumoniae 1204034 (membrane impermeability), [PMBN] 300, Table 4a) of 0.38 µg/mL and an MIC ([11]; Klebsiella pneumoniae, 1204034, K. pneumoniae 1204034 (porin−), [PMBN] 0, Table 4, read-out: MIC) of 12 µg/mL. The MIC ([11]; Klebsiella pneumoniae, 1204034, K. pneumoniae 1204034 (porin−), [PMBN] 150 μg/ml, Table 4, read-out: MIC) was 0.5 µg/mL and the MIC ([11]; Klebsiella pneumoniae, 1204034, K. pneumoniae 1204034 (porin−), [PMBN] 200 μg/ml, Table 4, read-out: MIC) was 0.25 µg/mL.
